Measurements: US20240156965A1, “DICHALCOGENIDE PRODRUGS” (Ludwig-Maximilians-Universitat Munchen, priority 2021, published 2024)
Changes are numbered by the printed parent chain. “Also recorded” adds a separate entry of the source.

Key:
[1] = molecular target: T1, thioredoxin reductase Sec498Cys mutant (TrxR1 U498C) (Homo sapiens, UniProt Q16881); assay: Enzymatic activation assay with TrxR1 Sec498Cys mutant, cell-free; format: biochemical; settings: 10 μM probe, 20 nM mutant, 100 μM NADPH
T1 sequence (Q16881 with tags, fused parts or gaps isoform Q16881-5): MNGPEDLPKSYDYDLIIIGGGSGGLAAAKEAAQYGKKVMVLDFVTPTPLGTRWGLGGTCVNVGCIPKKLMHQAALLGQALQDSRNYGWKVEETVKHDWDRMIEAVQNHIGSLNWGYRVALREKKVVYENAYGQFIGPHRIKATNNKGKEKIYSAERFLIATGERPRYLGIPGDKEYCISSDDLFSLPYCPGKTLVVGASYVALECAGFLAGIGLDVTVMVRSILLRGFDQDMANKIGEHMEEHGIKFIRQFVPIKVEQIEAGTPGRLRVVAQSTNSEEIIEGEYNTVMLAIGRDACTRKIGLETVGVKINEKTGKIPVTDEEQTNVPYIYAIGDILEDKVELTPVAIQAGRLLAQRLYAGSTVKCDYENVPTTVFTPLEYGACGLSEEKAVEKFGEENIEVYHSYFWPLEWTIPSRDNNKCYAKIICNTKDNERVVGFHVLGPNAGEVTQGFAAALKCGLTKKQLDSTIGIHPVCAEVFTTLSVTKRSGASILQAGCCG
Procedure: (§1) This cell-free assay (see FIG. 2) examined the processing of dichalcogenide-based fluorophore-releasing reduction-triggered probes that are compounds of the invention, by components of the cellular thioredoxin system.
(§2) Assay conditions and data representation: A black 96-well plate with black bottom was charged with solutions of probes (P1, P2, P3, P6, P7) to reach final reaction conditions: 100 μL of aq. TE buffer (pH 7.4), 10 μM probe concentration, 1 vol % DMSO, and 20 nM of human recombinant thioredoxin reductase 1 (TrxR1; in FIG. 1a), or 20 nM of either TrxR1 or thioredoxin reductase Sec498Cys mutant (TrxR1 U498C or “mut”; in FIG. 1b), or the indicated probe-to-reductant concentration ratios of TrxR1 (in FIG. 1c) or human recombinant thioredoxin 1 (Trx1; in FIG. 1d); with the final step being the addition of NADPH (100 μM final). The reaction mixtures were incubated at 37° C. for 3 to 6 h as shown with timecourse measurements of fluorescence as for FIG. 1. Data representation as for FIG. 1.

TrxR1 = molecular target: T2, TrxR1 (Mus musculus, UniProt Q9JMH6); assay: Cellular reduction assay in MEF cells with TrxR1 knockout; format: cell-based; settings: MEF wildtype vs TrxR1 knockout
T2 construct: P6 is processed by native (selenium-incorporating) TrxR1 in cells; endogenous in cells; host or cells: MEF wildtype and MEF with TrxR1 knockout
T2 sequence (Q9JMH6 1-499 isoform Q9JMH6-2): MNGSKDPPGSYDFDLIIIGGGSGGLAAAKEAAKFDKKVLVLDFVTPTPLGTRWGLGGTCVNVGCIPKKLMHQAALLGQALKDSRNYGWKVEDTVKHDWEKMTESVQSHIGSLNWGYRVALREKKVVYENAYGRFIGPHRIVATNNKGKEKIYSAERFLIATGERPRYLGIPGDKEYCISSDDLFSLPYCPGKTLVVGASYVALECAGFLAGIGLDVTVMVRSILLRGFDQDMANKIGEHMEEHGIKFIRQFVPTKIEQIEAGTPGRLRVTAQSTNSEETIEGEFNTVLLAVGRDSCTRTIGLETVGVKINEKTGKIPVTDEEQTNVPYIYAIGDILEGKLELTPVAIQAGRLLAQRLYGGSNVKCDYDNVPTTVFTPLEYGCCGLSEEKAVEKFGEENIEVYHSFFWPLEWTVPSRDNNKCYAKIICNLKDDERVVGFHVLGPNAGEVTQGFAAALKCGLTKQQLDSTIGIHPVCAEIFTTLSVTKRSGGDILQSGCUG
Procedure: (§3) Assay Conditions: Cells were cultured under standard conditions (Gao, L. et al. Cell Chemical Biology 2021, 28, 1-14. https://doi.org/10.1016/j.chembiol.2020.11.007), left to adhere for 24 h, then compounds were added to 100 μM with 1% vol DMSO. Fluorescence timecourse measurements were acquired as in the chemoreductant assay, with all conditions in triplicates.
(§4) Data Representation: F.I.(t) is the fluorescence intensity signal increase as compared to time zero signal (fluorescence intensity immediately following compound addition, before probe activation could occur), in arbitrary units although with the same detection settings for all probes releasing the same cargo. This corresponds to reduction-triggered cargo release.

[2] = molecular target: T3, human recombinant thioredoxin 1 (Trx1) (Homo sapiens, UniProt P10599); assay: Trx1 titration in Trx1/TrxR1 system, cell-free; format: biochemical; settings: 10 μM probe
T3 sequence (P10599 2-105 limits assumed): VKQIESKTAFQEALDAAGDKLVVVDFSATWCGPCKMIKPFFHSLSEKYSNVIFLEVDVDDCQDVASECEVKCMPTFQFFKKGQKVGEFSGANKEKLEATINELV
Procedure: as §1, §2

[3] = molecular target: T4, human recombinant thioredoxin reductase 1 (TrxR1) (Homo sapiens, UniProt Q16881); assay: Enzymatic activation assay with TrxR1, cell-free; format: biochemical; settings: 10 μM probe
T4 sequence (Q16881 1-499 isoform Q16881-5): T1 sequence (Q16881 with tags, fused parts or gaps isoform Q16881-5) with C498U
Procedure: as §1, §2

[4] = system: glutaredoxins (Grx1 and Grx2) with GR and GSH; assay: Challenge with GR/GSH/Grx system reductants, cell-free; format: biochemical; settings: 10 μM probe, GR 20 nM, GSH 100 μM, Grx1 or Grx2 up to physiological concentrations
From the text: (§5) This cell-free assay examined the stability of dichalcogenide-based reduction-triggered compounds of the invention when exposed to cellular monothiol reductant GSH, and its cellular partner reductants glutathione reductase (GR) and glutaredoxins (Grx1 and Grx2).
(§6) Assay Conditions: A black 96-well plate with black bottom was charged with solutions of fluorophore-releasing reduction-triggered probes that are compounds of the invention (P1, P2, P3, P6 and P7) or that are not compounds of the invention and reveal the performance of prior art systems (disulfide X26), reaching 100 μL final volume, 1% final DMSO, 10 μM probe, aq. TE buffer (pH 7.4), with the indicated concentrations of reductant (in FIG. 1a) or concentration ratios of reductant to probe (in FIG. 1b-d). TCEP (100 μM) was used as a quantitative reference reductant; and in the GR/GSH/Grx assays (FIG. 1c-d), GR was used at 20 nM, GSH at 100 μM, to maintain Grx in a reduced state suitable for challenging the probes without supplying a high concentration of either GSH or GR. Reaction mixtures were incubated at 37° C. for up to 6 h while measuring fluorescence intensity F over time, using a BMG Labtech FLUOstar Omega platereader (λexc=355 nm, λem=530 nm).
(§7) Data Representation: F^TCEP is the maximum possible fluorescence increase, corresponding to complete reduction-triggered cargo release by the TCEP incubation. F/F^TCEP thus gives the fluorescence intensity, as a fraction of the maximum possible fluorescence signal, at the indicated times.

[5] = system: selenium-dependent reductases in cells; assay: Cellular reduction assay with selenium starvation or supplementation; format: cell-based
Procedure: as §3, §4

TrxR = molecular target: T5, TrxR (Homo sapiens, UniProt Q16881); assay: Cellular reduction assay in HeLa cells with chemical TrxR inhibition (TRi compounds); format: cell-based
T5 construct: P6 is processed by native (selenium-incorporating) TrxR1 in cells; endogenous in cells; host or cells: HeLa
T5 sequence (Q16881 1-499 isoform Q16881-5): T1 sequence (Q16881 with tags, fused parts or gaps isoform Q16881-5) with C498U
Procedure: as §3, §4

[6] = system: HeLa cervical cancer cell line; assay: Cellular reduction assay in HeLa cells (fluorescence timecourse); format: cell-based, human; settings: time- and dose-dependence
Procedure: as §3, §4

[7] = system: A549 lung cancer cell line; assay: Cellular reduction assay in A549 cells; format: cell-based, human; settings: time- and dose-dependence
Procedure: as §3, §4

[8] = Challenge with monothiol reductant GSH, cell-free fluorogenic cargo release; format: physicochemical; settings: 10 μM probe
From the text: as §5, §6, §7

CN1CCN(C(=O)CCN(C(=O)Oc2ccc(Cl)cc2-c2nc3ccc(Cl)cc3c(=O)[nH]2)[C@H]2CCS[Se]C2)CC1 [P6]
cargo release by TrxR1 U498C mutant [1]: do not respond to the mutant; also recorded: did not cause cargo release
effect of TrxR1 knockout on cellular signal (TrxR1): almost entirely suppressed by knockout
cargo release with increasing Trx1 at fixed TrxR1 [2]: identical release of cargo; also recorded: did not affect the outcomes
cargo release on exposure to TrxR1 (timecourse) ([3]; 20 nM TrxR1, 100 μM NADPH, 37 °C): release their cargo rapidly; also recorded: release cargo very rapidly
response in TrxR titration ([3]; TrxR down to 5 nM): excellently responsive; also recorded: sensitively
triggering by GR/GSH/Grx systems [4]: resist triggering
effect of selenium starvation/supplementation on cellular signal generation [5]: strongly suppressed by selenium starvation
effect of chemical TrxR inhibition on cellular signal (TrxR): suppresses P6 signal generation; also recorded: almost entirely suppressed
fluorescence signal generation F.I.(t) in HeLa cells [6]: strong time- and dose-dependent fluorescent signal increase; also recorded: generated strong fluorescent signal
fluorescence signal generation in A549 cells [7]: time- and dose-dependent fluorescence increase; also recorded: dose- and time-dependently generated signal
sensitivity to GSH in GSH titration, signal F/F^TCEP ([8]; 3 h timepoint, GSH up to 10 mM): completely insensitive
cargo release when challenged with GSH / GSH system reductants ([8]; relevant cellular levels): totally resisted releasing cargo
